{"source": "patent US20190290623A1", "about": "“USE OF TIOTROPIUM BROMIDE TO PREVENT PULMONARY OXYGEN TOXICITY” (priority 2018, published 2019)", "assay_type_in_all_cases": "in vivo", "key": {"[1]": {"test_system": "swine exposed to 1.5 ATA hyperbaric oxygen for 17.5 hr", "assay": "Experiment 1 shallow exposure simulation: Impulse Oscillometry (IOS)", "conditions": "1.5 ATA O2 17.5 hr, 18 mcg nebulized pre-dive, post-dive normalized to baseline, n=7/arm", "protocol": "(§1) Experiment 1 is designed to evaluate the efficacy of tiotropium bromide administered pre-dive in reducing decrements in pulmonary function due to PO2T following a 17.5 hour, 1.5 ATA hyperbaric oxygen exposure. This dive profile was selected because it was of sufficient duration to elicit persistent pulmonary function decrement in humans.\n(§2) The swine were anesthetized with propofol (20 cc, I.V. target, adjusted as needed to optimize sedation), intubated and ventilated. Anesthetized swine were shaved, then ECG and EEG electrodes were placed. Animals were then paralyzed with Atracurium Besylate (50 mg, IV) for accurate pulmonary function measurements of quasi-static and dynamic compliance.\nFollowing baseline pulmonary function measurements, the swine were randomized to receive equivalent volumes of normal saline or tiotropium bromide (18 mcg) via nebulizer. The swine were then ventilated until muscle tone was regained. […]\nNext, the swine were switched to 100% oxygen breathing gas and remained at 1.5 ATA for 17.5 hr. […] When fully sedated, the swine were ventilated, paralyzed with Atracurium Besylate, and post-dive measurements of pulmonary function were recorded. During all phases of study the swine were continuously monitored for signs of seizure or distress. […]"}, "[2]": {"test_system": "swine exposed to 1.5 ATA hyperbaric oxygen for 17.5 hr", "assay": "Experiment 1 shallow exposure simulation: pulmonary capacities", "conditions": "1.5 ATA O2 17.5 hr, percent change from baseline", "protocol": "as §1, §2\nFollowing baseline pulmonary function measurements, the swine were randomized to receive equivalent volumes of normal saline or tiotropium bromide (18 mcg) via nebulizer. The swine were then ventilated until muscle tone was regained. Sedation was discontinued and the swine were extubated, transported to the hyperbaric chamber and allowed to recover until able to independently stand. Once able to stand, animals had electrode leads attached and IV tubing connected to the ear vein catheter. The chamber hatch was then closed and the swine compressed to 1.5 ATA on air.\nNext, the swine were switched to 100% oxygen breathing gas and remained at 1.5 ATA for 17.5 hr. At the end of the 17.5 hour 1.5 ATA oxygen exposure, swine surfaced at a rate of 1 ATA/minutes (ATA/min), were transferred to a Panepinto sling, sedated with diazepam (1.5-2.0 mg/kg, I.V) and reassessed via impulse Oscillometry. The swine were again anesthetized with propofol and intubated. When fully sedated, the swine were ventilated, paralyzed with Atracurium Besylate, and post-dive measurements of pulmonary function were recorded. During all phases of study the swine were continuously monitored for signs of seizure or distress.\nBaseline and post-dive assessments of pulmonary compliance were conducted on each animal enrolled in the study. […] These values were expressed as percent change from baseline."}, "[3]": {"test_system": "swine exposed to 2.5 ATA hyperbaric oxygen for 5.5 hr", "assay": "Experiment 2: lung wet-dry ratio", "conditions": "2.5 ATA O2 5.5 hr; n=13; mean ± SEM; p=0.4566 vs saline", "source_text": "Lungs were collected from the swine during necropsy. The right lung was collected for measurement of wet-dry ratios. The left lung was fixed via tracheal instillation at a standard pressure of 25 cmH2O with 10% neutral buffered formalin (NBF). The lungs were then sectioned into ten, one centimeter (cm) cranial to caudal serial sections. Three, 1 cm blocks were cut from each section and post-fixed in 10% NBF, trimmed, embedded in paraffin and cut into 5 μm sections for histological staining. Histology slides were de-paraffinized and stained with hematoxylin and eosin. A board-certified veterinary pathologist blinded to group randomization reviewed all gross necropsies, images, and histology slides.\nAll data were compiled into Excel spreadsheets then imported into Graphpad Prism 7.02 for statistical analysis. […] To allow for accurate data comparison between animals and/or groups the pressure volume curves were separated into inspiratory arms (0 to 40 cm H2O) and expiratory arms (40 to −40 cm H2O). Each arm was then fit using a non-linear regression utilizing a Gaussian distribution model. Volume data was then extrapolated from the curve corresponding to pressures from 0 to 40 cmH2O at 2.5 cm H2O increments. Statistical group-wise comparison of the extrapolated inspiratory and expiratory arms were conducted using repeated measures two-way ANOVA. […]"}}}
{"compound": "C[N+]1(C)[C@@H]2C[C@@H](OC(=O)C(O)(c3cccs3)c3cccs3)C[C@H]1[C@@H]1O[C@@H]12", "note": "[Tiotropium, tiotropium bromide]", "values": [{"measurement": "IOS resistance, Tiotropium treated animals vs saline controls", "setting": "[1]; p=0.172", "value": "no significant differences"}, {"measurement": "IOS reactance, Tiotropium treated animals vs saline controls", "setting": "[1]; p=0.65", "value": "no significant differences"}, {"measurement": "Vital Capacity, Saline vs Tiotropium", "setting": "[2]; p=0.394", "value": "no significant differences"}, {"measurement": "Expiratory Reserve Volume, Saline vs Tiotropium", "setting": "[2]; p=0.445", "value": "no significant differences"}, {"measurement": "Inspiratory capacity, Saline vs Tiotropium", "setting": "[2]; p=0.879", "value": "no significant differences"}, {"measurement": "Wet-Dry ratios of lung", "setting": "[3]", "value": "6.067±0.2305"}]}
